# Measured values as given in patent publication US20060183773A1, “Uses of methylphenidate derivatives” (priority 2005, published 2006).
# How the values were obtained:
# [1] = test system: MC/9 murine fibroblast cell line; assay: MC/9 cell proliferation, Promega cell titer assay; type: cell-based; settings: 72 hours
# Description: Cells of the MC/9 murine […] cell line (obtained from ATCC, catalog no. CRL-8305) were placed into the wells of a 96-well tissue culture plate at 25,000 cells/well. The culture medium was Delbecco's Modified Eagle's Medium (DMEM) (obtained from Cambrex) containing 10% fetal calf serum (FCS) (obtained from ATCC). Nil control wells contained no additives. The remaining wells contained either 25 ng/ml murine nerve growth factor (NGF) (obtained from Upstate Biotechnology, Lake Placid, NY) or 25 ng/ml NGF and 5% TSTIM (a culture supplement prepared from rats and containing concanavalin A which was obtained from BD Biosciences). […] After 72 hours of culture at 37° C. and 5% CO2, cell proliferation was evaluated by the Promega cell titer assay as described in Example 1.
# IkB-α = assay: Custom AntibodyArray, TRiPS cells: IkB-α; type: cell-based, human; settings: 15 μg/ml, 30 minutes
# Description: (§1) Day 18 TRiPS cells, 1×10^6, were incubated for 30 minutes at 37° C., either with nothing added (“Nil”), with 1 μl CD3/CD28 Dynabeads (Dynal, Oslo, Norway) (“CD3/CD28 beads”) per 100,000 cells, or with CD3/CD28 beads and 15 μg/ml of the compound of formula II (Cpd II). After the incubation, the cells were lysed in Cell-Lytic Mammalian Cell Extraction Reagent (Sigma). After centrifugation to pellet cellular debris, the supernatants (cell extracts) were obtained.
# (§2) The cell extracts (supernatants) were then analyzed using a Custom AntibodyArray™ manufactured by Hypromatrix Inc., Worcester, Mass., following the manufacturer's instructions. The Custom AntibodyArray™ is a nylon membrane blotted with antibodies to the proteins listed below. Briefly, the cell extracts were incubated with duplicate Custom AntibodyArray™'s for 2 hours at room temperature with slow shaking, followed by three washes with Tris buffer (150 mM NaCl, 25 mM Tris, 0.05% Tween-20, pH 7.5). HRP-labeled antibodies specific for phosphorylated-tyrosine, phosphorylated-serine and phosphorylated-threonine in Tris buffer were added, and the arrays incubated for 2 hours. After three more washes with Tris buffer, a peroxidase-reactive luminescent substrate was added. The arrays were visualized by exposure to X-ray film. Densitometry of the X-ray films was measured by scanning and computer analysis.
# IkB-ε = assay: Custom AntibodyArray, TRiPS cells: IkB-ε; type: cell-based, human; settings: 15 μg/ml, 30 minutes
# Description: as §1, §2
# 14-3-3 = assay: Custom AntibodyArray, TRiPS cells: 14-3-3; type: cell-based, human; settings: 15 μg/ml, 30 minutes
# Description: as §1, §2
# IkB-β = assay: Custom AntibodyArray, TRiPS cells: IkB-β; type: cell-based, human; settings: 15 μg/ml, 30 minutes
# Description: as §1, §2
# TNFα = TNFα release from LPS-stimulated THP-1 monocytes, ELISA; type: cell-based, human; settings: THP-1, LPS 200 ng/ml, Cpd II 15 μg/ml, Dex 10 μM
# Description: THP-1 is a monocyte cell line obtained from American Type Culture Collection (ATCC) (catalog no. TIB-202). […] After 1 hour, lipopolysaccharide (LPS) (obtained from Sigma) was added to the cultures to give a final concentration of 200 ng/ml, and the cells were then incubated for an additional 4 hours or for an additional 24 hours. After the incubation, the cells were centrifuged, and the supernatants were collected. The concentrations of IL-8 and TNFα in the supernatants were determined by ELISA.
# The TNFα ELISA was performed as described in Example 2.
compound,measurement,setting,value
COC(=O)C(c1ccc(-c2ccccc2)cc1)C1CCCCN1 (stereo not shown) [Cpd II],Mean OD 530 nm,"[1]; MC/9, NGF 25 ng/ml + 1 μg/ml, NGF + water 0.101",0.117 ± 0.015
same,Mean OD 530 nm,"[1]; MC/9, NGF 25 ng/ml + 5 μg/ml, NGF + water 0.101",0.108 ± 0.012
same,Mean OD 530 nm,"[1]; MC/9, NGF 25 ng/ml + 15 μg/ml, NGF + water 0.101",0.049 ± 0.016
same,Mean OD 530 nm,"[1]; MC/9, NGF + TSTIM + 1 μg/ml, NGF + TSTIM + water 0.365",0.428 ± 0.027
same,Mean OD 530 nm,"[1]; MC/9, NGF + TSTIM + 5 μg/ml, NGF + TSTIM + water 0.365",0.373 ± 0.016
same,Mean OD 530 nm,"[1]; MC/9, NGF + TSTIM + 15 μg/ml, NGF + TSTIM + water 0.365",0.326 ± 0.024
same,Effect of Cpd II on the protein in CD3/CD28 stimulated TRiPS cells,IkB-α,Slightly decreased the level
same,Effect of Cpd II on the protein in CD3/CD28 stimulated TRiPS cells,IkB-ε,Slightly decreased the level
same,Effect of Cpd II on the protein in CD3/CD28 stimulated TRiPS cells,14-3-3,Slightly decreased the level
same,Effect of Cpd II on the protein in CD3/CD28 stimulated TRiPS cells,IkB-β,Decreased level back to basal levels (Nil control)
same,inhibition at 15 µg/mL,"TNFα; Homo sapiens, 24 hours",53%
same,Mean TNFα Concentration,"TNFα; 24 hours, LPS alone 138.655",65.370 ± 0.891 pg/mL
same,release of TNFα from LPS-stimulated monocytes (in words),TNFα,significantly inhibited the release of TNFα
